From patent US20250025443A1, “COMPOUNDS AND METHODS FOR TREATING CORONA VIRUSES” (CLEAR CREEK BIO, INC., priority 2021, published 2025)

target: SARS-CoV-2 Papain-Like Protease (PLpro) (Severe acute respiratory syndrome coronavirus 2 (2019-nCoV) (SARS-CoV-2), UniProt P0DTD1); assay: biochemical; conditions: PLpro enzymatic fluorescence assay; class symbols; read-out: PLpro IC50

| Compound | IC50 [nM] |
| --- | --- |
| C=CCc1cc(C2(NC(=O)c3cc(OCC4CCN4C)ccc3C)CC2)c2ccccc2c1 (stereo not drawn) [Compound 503, N-(1-(3-Allylnaphthalen-1-yl)cyclopropyl)-2-methyl-5-((1-methylazetidin-2-yl)methoxy)benzamide] | < 100 |
| Cc1cc(-c2cc(C3(NC(=O)c4cc(OC[C@@H]5CCN5)ccc4C)CC3)c3cccnc3c2)cs1 [Compound 640, (S)-5-(Azetidin-2-ylmethoxy)-2-methyl-N-(1-(7-(5-methylthiophen-3-yl)quinolin-5-yl)cyclopropyl)benzamide] | < 100 |
| Cc1ccc(OC[C@@H]2CCN2)cc1C(=O)NC1(c2cc(-c3ccn(C(F)F)n3)cc3ncccc23)CC1 [Compound 656, (S)-5-(Azetidin-2-ylmethoxy)-N-(1-(7-(1-(difluoromethyl)-1H-pyrazol-3-yl)quinolin-5-yl)cyclopropyl)-2-methylbenzamide] | < 100 |
| Cc1ccc(OCC2CN(C)C2)cc1C(=O)NC1(c2cccc3ccccc23)CC1 [Compound 427, 2-Methyl-5-((1-methylazetidin-3-yl)methoxy)-N-(1-(naphthalen-1-yl)cyclopropyl)benzamide] | < 100 |
| Cc1cc(-c2cc(C3(NC(=O)c4cc(OC[C@@H]5CCN5C)ccc4C)CC3)c3cccnc3c2)c(C)o1 [Compound 671, (S)—N-(1-(7-(2,5-Dimethylfuran-3-yl)quinolin-5-yl)cyclopropyl)-2-methyl-5-((1-methylazetidin-2-yl)methoxy)benzamide] | < 100 |
| COc1cc(C2(NC(=O)c3cc(OCCNC(C)(C)C)ccc3C)CC2)c2cccnc2c1 [Compound 626, 5-(2-(tert-Butylamino)ethoxy)-N-(1-(7-methoxyquinolin-5-yl)cyclopropyl)-2-methylbenzamide] | < 100 |

same assay, conditions: SARS-CoV-2 PLpro enzymatic fluorescence assay; read-out: PLpro IC50

| Compound | IC50 [nM] |
| --- | --- |
| Cc1cc2c(C)c[nH]c2cc1C(=O)NC1(c2cccc3ccccc23)CC1 [Compound 212, 3,5-Dimethyl-N-(1-(naphthalen-1-yl)cyclopropyl)-1H-indole-6-carboxamide] | 100 to 1000 |
| Cc1ccc(OCC2CCN2C)cc1C(=O)NC1(c2cccc3ccc(N)cc23)CC1 (stereo not drawn) [Compound 483, N-(1-(7-Aminonaphthalen-1-yl)cyclopropyl)-2-methyl-5-((1-methylazetidin-2-yl)methoxy)benzamide] | < 100 |
| Cc1cc2cc(C(=O)O)[nH]c2cc1C(=O)NC1(c2cccc3ccccc23)CC1 [Compound 204, 5-Methyl-6-((1-(naphthalen-1-yl)cyclopropyl)carbamoyl)-1H-indole-2-carboxylic acid] | 100 to 1000 |
| Cc1ccc(OCCN(C)C)cc1C(=O)NC1(c2cc(-c3cccs3)cc3ccccc23)CC1 [Compound 420, 5-(2-(Dimethylamino)ethoxy)-2-methyl-N-(1-(3-(thiophen-2-yl)naphthalen-1-yl)cyclopropyl)benzamide] | < 100 |
| Cc1cc2cnn(C3CNC3)c2cc1C(=O)NC1(c2cccc3ccccc23)CC1 [Compound 304, 1-(Azetidin-3-yl)-5-methyl-N-(1-(naphthalen-1-yl)cyclopropyl)-1H-indazole-6-carboxamide] | < 100 |
| CNCCOc1ccc(C)c(C(=O)NC2(c3cc(-c4cccs4)cc4ccccc34)CC2)c1 [Compound 486, 2-Methyl-5-(2-(methylamino)ethoxy)-N-(1-(3-(thiophen-2-yl)naphthalen-1-yl)cyclopropyl)benzamide] | < 100 |
| Cc1ccc(OCC(N)Cc2ccccc2)cc1C(=O)NC1(c2cccc3ccccc23)CC1 (stereo not drawn) [Compound 322, 5-(2-Amino-3-phenylpropoxy)-2-methyl-N-(1-(naphthalen-1-yl)cyclopropyl)benzamide] | < 100 |
| COc1ccnc(COc2ccc(C)c(C(=O)NC3(c4cc(OC)cc5ncccc45)CC3)c2)c1 [Compound 561, 5-((4-Methoxypyridin-2-yl)methoxy)-N-(1-(7-methoxyquinolin-5-yl)cyclopropyl)-2-methylbenzamide] | 100 to 1000 |
| C[C@H](c1cccc2ccccc12)N1C[C@@H]2[C@H](C1)[C@H]2C(=O)NCc1cccc(F)c1 [Compound 149] | > 5000 |
